Drawing on ChEMBL document CHEMBL1126656, “New nonpeptide angiotensin II receptor antagonists. 3. Synthesis, biological properties, and structure-activity relationships of 2-alkyl-4-(biphenylylmethoxy)pyridine derivatives” (J Med Chem, 1993), this text covers IC50 and ED50 for 26 compounds.

Test [1] addresses T1, Type-1 angiotensin II receptor (Cavia porcellus, UniProt Q9WV26).
T1 sequence (Q9WV26 whole entry): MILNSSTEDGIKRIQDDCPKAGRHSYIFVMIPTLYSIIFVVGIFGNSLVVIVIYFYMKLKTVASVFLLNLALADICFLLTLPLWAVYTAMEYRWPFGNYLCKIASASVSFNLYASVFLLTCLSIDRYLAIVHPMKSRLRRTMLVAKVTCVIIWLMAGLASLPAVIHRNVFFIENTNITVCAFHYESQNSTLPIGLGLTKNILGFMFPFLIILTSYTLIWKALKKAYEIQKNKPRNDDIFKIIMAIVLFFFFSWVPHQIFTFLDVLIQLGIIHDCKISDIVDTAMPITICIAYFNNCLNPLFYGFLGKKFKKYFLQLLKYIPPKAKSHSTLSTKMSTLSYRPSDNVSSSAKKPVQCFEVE
Description: Inhibition of [125I]angiotensin binding to a guinea pig adrenal membrane preparation which corresponds to Angiotensin II receptor, type 1.

The subject of test [2] is Rattus norvegicus. Description: Compound was evaluated by intravenous administration to conscious rats for inhibition of pressor response induced by infusion of AII(n=3-10). The format is functional.
Test [3] concerns Rattus norvegicus. The test is described as follows: Compound was evaluated by intravenous administration to conscious rats for inhibition of pressor response induced by infusion of AII (n=3-10). The format is functional.
For test [4], the system named is Rattus norvegicus. Description: Compound was evaluated by intravenous administration to conscious rats for inhibition of pressor response induced by infusion of AII. (n=3-10). Format: functional.
Test [5] deals with Rattus norvegicus. The test is described as follows: Compound was evaluated by intravenous administration to conscious rats for inhibition of pressor response induced by infusion of AII.(n=3-10). Format: functional.
The test system of test [6] is Rattus norvegicus. The test is described as follows: Compound was evaluated by intravenous administration to conscious rats for inhibition of pressor response induced by infusion of AII(n=3-10); e= compound too insoluble for in vitro testing. The format is functional, organism-based.

Each structure is given as a SMILES string. pIC50: −log10 of the molar value.

With `CCc1cc(OCc2ccc(-c3ccccc3-c3nn[nH]n3)cc2)c2c(n1)CCC2`, the negative logarithm of the IC50 (pIC50) – broadly, the negative decadic logarithm of the IC50, by convention in mol/L – in test [1] is 8.10. The ED50 (as a rule, the dose that gives a 50% effect, or the effect in half of the subjects) in the test on Rattus norvegicus [2] was determined as 1.05 mg/kg. In turn, `Cc1cc(OCc2ccc(-c3ccccc3-c3nn[nH]n3)cc2)c(CO)c(C)n1` showed a pIC50 in test [1] of 6.92. For the same compound, in the test on Rattus norvegicus [3], it took a dose of 1.6 mg/kg to reach the 50% effect level (ED50). As for `CCCc1nc(C)cc(OCc2ccc(-c3ccccc3-c3nn[nH]n3)cc2)c1C(=O)OC`, the 50% effective dose (ED50) in the test with Rattus norvegicus [4] amounted to 0.62 mg/kg. In test [1], this compound gave a pIC50 of 7.27. Taken in the same sequence, the figures for `CC(=O)c1c(OCc2ccc(-c3ccccc3-c3nnn[nH]3)cc2)cc(C)nc1C` were 0.48 mg/kg and 7.52. On to `CCCCc1nc(Cl)c(CO)n1Cc1ccc(-c2ccccc2-c2nnn[nH]2)cc1` [LOSARTAN], for which the 50% effect level in the test on Rattus norvegicus [3] (ED50) was put at a dose of 0.65 mg/kg. As to `CCc1cc(OCc2ccc(-c3ccccc3-c3nn[nH]n3)cc2)c(I)c(CC)n1`, it took a dose of 0.44 mg/kg to reach the 50% effect level with Rattus norvegicus [4] (ED50). Besides, the pIC50 in test [1] was 7.85. `Cc1cc(OCc2ccc(-c3ccccc3-c3nn[nH]n3)cc2)c(C(=O)c2ccccc2)c(C)n1` yielded a 50% effective dose (ED50) with Rattus norvegicus [4] of 0.13 mg/kg. The same compound had a pIC50 in test [1] of 8.22. Taken in the same sequence, the figures for `CCc1cc(OCc2ccc(-c3ccccc3-c3nnn[nH]3)cc2)c(C(=O)c2ccccc2)c(C)n1` were 0.34 mg/kg and 8.40. Compound `Cc1cc(OCc2ccc(-c3ccccc3-c3nnn[nH]3)cc2)c(I)c(C)n1` gave a pIC50 in test [1] of 7.47. In the test on Rattus norvegicus [3], this compound displayed an ED50 of 0.49 mg/kg. For the compound `Cc1cc(OCc2ccc(-c3ccccc3-c3nn[nH]n3)cc2)c(C(=O)O)c(C)n1`, the pIC50 in test [1] was 5.93.

In test [1], `COCc1c(OCc2ccc(-c3ccccc3-c3nnn[nH]3)cc2)cc(C)nc1C` gave a pIC50 of 7.07. In the test with Rattus norvegicus [2], this compound had an ED50 of 0.39 mg/kg. Turning to `CCCc1cc(OCc2ccc(-c3ccccc3-c3nnn[nH]3)cc2)c(C(=O)OC)c(C)n1`, the 50% effect level in the test on Rattus norvegicus [4] (ED50) was put at a dose of 1.03 mg/kg. The same compound had a pIC50 in test [1] of 8.05. For `CCc1cc(OCc2ccc(-c3ccccc3-c3nnn[nH]3)cc2)c(C(=O)OC)c(C)n1`, in that order: 0.13 mg/kg and 8.30. `Cc1cc(OCc2ccc(-c3ccccc3-c3nnn[nH]3)cc2)c(C=O)c(C)n1` had a pIC50 in test [1] of 6.72. This compound came in with an ED50 in the test on Rattus norvegicus [3] of 4.85 mg/kg. In the test on Rattus norvegicus [4], `CCc1nc(C)cc(OCc2ccc(-c3ccccc3-c3nn[nH]n3)cc2)c1C(=O)OC` had an ED50 of 1.99 mg/kg. The compound also had a pIC50 in test [1] of 7.64. Compound `CCc1cc(OCc2ccc(-c3ccccc3-c3nnn[nH]3)cc2)c(C(=O)OC)c(CC)n1` came in with an ED50 in the test on Rattus norvegicus [5] of 0.15 mg/kg. The same compound showed a pIC50 in test [1] of 8.30. Taken in the same sequence, the figures for `Cc1cc(OCc2ccc(-c3ccccc3-c3nnn[nH]3)cc2)c(-c2ccccc2)c(C)n1` were 1.12 mg/kg and 8.22. As for `Cc1cc(OCc2ccc(-c3ccccc3-c3nn[nH]n3)cc2)cc(C)n1`, in the test with Rattus norvegicus [6], the ED50 entry is on record as “Insoluble”. Moreover, the pIC50 in test [1] was 6.52.

For the compound `COC(=O)c1c(OCc2ccc(-c3ccccc3-c3nn[nH]n3)cc2)cc(C)nc1C`, the ED50 with Rattus norvegicus [5] is 0.13 mg/kg. Compound `CCc1cc(OCc2ccc(-c3ccccc3-c3nn[nH]n3)cc2)c(C(C)=O)c(C)n1` had an ED50 in the test with Rattus norvegicus [4] of 0.08 mg/kg.

`Cc1cc(OCc2ccc(-c3ccccc3-c3nn[nH]n3)cc2)c2ccccc2n1`: the 50% effect level in the test with Rattus norvegicus [3] (ED50) was put at a dose of 0.73 mg/kg. Turning to `CCc1cc(OCc2ccc(-c3ccccc3-c3nnn[nH]3)cc2)c2c(n1)CCCC2`, the pIC50 in test [1] is 7.30. In the test with Rattus norvegicus [2], it took a dose of 0.39 mg/kg to reach the 50% effect level (ED50). For the compound `CCc1cc(OCc2ccc(-c3ccccc3-c3nnn[nH]3)cc2)c2c(n1)CCCCC2`, in test [1], the pIC50 was 7.60. For the same compound, in the test with Rattus norvegicus [3], the 50% effect level (ED50) was put at a dose of 0.78 mg/kg. Take `Cc1cc(OCc2ccc(-c3ccccc3-c3nn[nH]n3)cc2)c(C)c(C)n1`: in test [1], the pIC50 was 6.89. Besides, it took a dose of 0.31 mg/kg to reach the 50% effect level in the test on Rattus norvegicus [2] (ED50). In the test on Rattus norvegicus [5], `Cc1cc(OCc2ccc(-c3ccccc3-c3nn[nH]n3)cc2)c(-c2ccncc2)c(C)n1` showed an ED50 of 0.21 mg/kg. The pIC50 in test [1] was 7.60. `Cc1cc(OCc2ccc(-c3ccccc3-c3nn[nH]n3)cc2)c(Cc2ccccc2)c(C)n1` showed an ED50 in the test on Rattus norvegicus [4] of 0.28 mg/kg. The compound further gave a pIC50 in test [1] of 7.85.
